Measurements from patent US9474780B2, “GIP and GLP-1 co-agonist compounds” (Eli Lilly and Company, priority 2015, dated 2016).
Several values for one entry are separate records, joined by “and”; a condition that tells them apart may be missing. Identical values can stand only once. Numbered stars: 1 amine (or outer) side, 2 acyl side, 3 side chain; on linkers, the order of the positions; unused ones are H or OH. Square brackets hold non-standard residues; d marks the D form. Side chains are listed from the residue outwards. Peptide text beside a SMILES is read from it. * marks the point of attachment. C18 diacid = O=C(O)CCCCCCCCCCCCCCCCC(=O)*; γGlu = O=C(O)[C@H](CCC(=O)[*:2])N[*:1]; 1Nal = N[C@@H](Cc1cccc2ccccc12)C(=O)O; AEEA = NCCOCCOCC(=O)O; Aib = CC(C)(N)C(=O)O

How the values were obtained:
[1] = molecular target: T1, human GLP-1R (Homo sapiens, UniProt P43220); assay: Functional hGLP-1R cAMP assay in HEK-293 clonal cells; type: cell-based; conditions: HEK293; percent of maximal response of hGLP-1(7-36)NH2
T1 construct: expressed in transfected cells; host or cells: 293HEK, Hygromycin-selected; crude plasma membranes
T1 sequence (P43220 24-463): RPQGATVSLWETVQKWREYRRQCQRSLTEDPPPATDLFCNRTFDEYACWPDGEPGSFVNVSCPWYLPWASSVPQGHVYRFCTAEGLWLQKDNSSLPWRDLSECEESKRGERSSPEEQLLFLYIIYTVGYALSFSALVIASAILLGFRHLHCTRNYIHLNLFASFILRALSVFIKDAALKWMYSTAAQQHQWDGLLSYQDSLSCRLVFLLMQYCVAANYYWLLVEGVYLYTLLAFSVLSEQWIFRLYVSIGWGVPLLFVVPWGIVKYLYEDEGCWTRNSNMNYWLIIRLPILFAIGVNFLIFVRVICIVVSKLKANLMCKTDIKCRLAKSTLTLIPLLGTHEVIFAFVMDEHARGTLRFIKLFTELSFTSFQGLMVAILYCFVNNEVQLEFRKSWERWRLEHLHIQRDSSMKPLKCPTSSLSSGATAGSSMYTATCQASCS
Experimental: (§1) After an incubation of 60 minutes at room temperature, the resulting increase in intracellular cAMP is quantitatively determined using the CisBio cAMP Dynamic 2 HTRF Assay Kit (Bedford, Mass.). Briefly, cAMP levels within the cell are detected by adding the cAMP-d2 conjugate in cell lysis buffer (20 μl) followed by the antibody anti-cAMP-Eu^3+-Cryptate, also in cell lysis buffer (20 μl). The resulting competitive assay is incubated for at least 60 minutes at room temperature, then detected using a PerkinElmer Envision® instrument with excitation at 320 nm and emission at 665 nm and 620 nm Envision units (emission at 665 nm/620 nm*10,000) are inversely proportional to the amount of cAMP present and are converted to nM cAMP per well using a cAMP standard curve. […] A relative EC50 value and percent top (Emax) is derived by non-linear regression analysis using the percent maximal response versus the concentration of the compound of the present invention, fitted to a four-parameter logistic equation.

[2] = molecular target: T2, human GIP-R (Homo sapiens, UniProt P48546); assay: Functional hGIP-R cAMP assay in HEK-293 clonal cells; conditions: HEK293, read-out: Human GIP-R Emax
T2 sequence (P48546 22-466): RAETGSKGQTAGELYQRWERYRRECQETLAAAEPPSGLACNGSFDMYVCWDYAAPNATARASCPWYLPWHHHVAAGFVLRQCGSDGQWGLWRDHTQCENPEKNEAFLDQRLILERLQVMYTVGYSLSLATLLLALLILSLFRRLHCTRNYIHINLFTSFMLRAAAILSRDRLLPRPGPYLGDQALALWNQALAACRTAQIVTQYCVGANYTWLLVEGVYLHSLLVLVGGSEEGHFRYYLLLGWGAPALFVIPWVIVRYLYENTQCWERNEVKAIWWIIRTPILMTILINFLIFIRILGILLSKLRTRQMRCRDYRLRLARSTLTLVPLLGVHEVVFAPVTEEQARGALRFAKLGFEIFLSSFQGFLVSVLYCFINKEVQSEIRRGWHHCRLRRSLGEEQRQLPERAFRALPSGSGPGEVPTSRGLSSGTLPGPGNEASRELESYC
Experimental: as §1

[3] = Weight loss, body composition and hepatic steatosis in DIO mice; type: in vivo, mouse; conditions: for Blood Glucose: Day 15
Experimental: The effects on weight loss, body composition and hepatic steatosis in DIO mice for compounds of the present invention are evaluated in C57/BL6 DIO mice. […] Animals are individually housed in a temperature-controlled (24° C.) facility with a 12 hour light/dark cycle (lights on 22:00), and free access to food and water. […] Daily body weight and food intake are measured throughout the study. Absolute changes in body weight are calculated by subtracting the body weight of the same animal prior to the first injection of compound. […] On Day 15, blood glucose is measured with Accu-Chek glucometer (Roche) from tail vein blood and then animals may be sacrificed and livers removed and frozen. Liver triglycerides, determined from homogenates of livers collected at sacrifice, and plasma cholesterol are measured on a Hitachi Modular P clinical analyzer. Statistical comparisons between groups are done using one-way ANOVA followed by Dunnett's multiple comparison test. The ED50 for weight loss lowering is determined in GraphPad Prism using the non-linear fit tool.

[4] = Pharmacokinetics in cynomolgus monkeys; type: in vivo; conditions: cynomolgus monkey, plasma, single SC 0.2 mg/kg, male monkeys, n = 2; for AUC(0-inf): read-out: Mean AUC0-inf; for half-life: read-out: Mean T1/2 (converted); for Tmax: read-out: Mean Tmax
Experimental: The compounds are administered by a single intravenous or subcutaneous dose (0.2 mg/kg) in 20 mM citrate buffer (pH 7.0) at a volume of 0.21 ml/kg. Blood is collected from each animal at 2, 4, 8, 12, 24, 48, 72, 96, 120, 144, 168, 204, 240, and 312 hours post-dosage. The plasma concentrations of compounds of the present invention are determined by a LC/MS method. Briefly, a compound of the present invention is extracted from 100% Monkey plasma sample (50 μl) diluted with 1×PBS (150 μl) and mixed with N-butanol (400 μl). Three distinct liquid layers are formed with the compound located in the top layer. A volume of 200 μl is transferred to a v-bottom 96-well plate, dried down using heated Nitrogen gas and reconstituted with 100 μl of 30% acetonitrile/0.1% formic acid. 20 μl of the reconstituted sample is injected onto a Supelco Analytical Discovery bio wide C5 3 μm column. The column effluent is directed into a Thermo Q-Exactive mass spectrometer for detection and quantitation.

[5] = molecular target: T1, human GLP-1R; type: binding; conditions: for Molar ratio of hGLP-1R/hGIP-R: normalized by factor 4.53 from native GIP and GLP-1 binding; for Absolute ratio of hGLP-1R/hGIP-R: ratio of Ki values
[6] = Rat in vivo insulin secretion following intravenous glucose (IVGTT); conditions: s.c. 16 hour prior to glucose
Experimental: Male Wistar rats (Harlan Labs, Indianapolis, Ind.) are randomized by body weight and dosed 1.5 ml/kg s.c. 16 hour prior to glucose administration and then fasted. Doses are vehicle, 0.1, 0.3, 1, 3 and 10 nmol/kg. Animals are weighed, and then anesthetized with sodium pentobarbital (Nembutal Sodium solution; Ovation Pharmaceuticals) dosed i.p. (65 mg/kg, 30 mg/ml). A time zero blood sample is collected into EDTA tubes after which glucose is administered ([…], 5 ml/kg). Blood samples are collected at 2, 4, 6, 10, 20, and 30 minutes post glucose. Plasma glucose levels are determined using a Hitachi analyzer (Roche) and plasma insulin is measured by the MSD insulin assay (Meso Scale, Gaithersburg, Md.).

[7] = tested on: mouse islets; assay: Mouse islet insulin secretion; type: cell-based; conditions: read-out: Mouse islet insulin secretion Mean ED50
Experimental: To assess action of compounds of the present invention in a system representing physiological GLP-1R and GIP-R expression levels insulin secretion, compounds are tested for effects on insulin secretion from wild-type rodent islets.
After common bile duct cannulation in male C57B1/6 mice (22-26 g) or male Sprague-Dawley rats (approx. 250 g), the pancreas is distended with Hank's buffer (3 ml for mice or 10 ml for rats, containing 2% BSA and 0.75 mg/ml Clzyme collagenase (VitaCyte). Subsequently, tissues are digested in Hank's buffer at 37° C. for 11-13 minutes (mice) or 14-16 minutes for rat pancreata. Purified islets (Histopaque-1100 gradient [Sigma-Aldrich], […] at 750× gravity) are cultured overnight in RPMI-1640 medium (Invitrogen) containing 10% FBS, 100 U/ml penicillin and 100 μg/ml streptomycin, and preconditioned by starvation in Earle's Balanced Salt Solution (EBSS) supplemented with 0.1% BSA and 2.8 mM glucose. Subsequently, islets are incubated in EBSS (Invitrogen) supplemented with 0.1% BSA, 2.8-11.2 mM glucose and increasing levels of compound (6 batches of 4 islets/condition). GLP-1(7-36)amide (30 nM) is used as a positive control. Insulin is measured over 90 minutes in supernatant using the MSD Insulin Assay (Meso Scale, Gaithersburg, Md.).

[8] = molecular target: Human GCGR (Homo sapiens, UniProt P47871); assay: Functional hGCGR cAMP assay in HEK-293 clonal cells
Human GCGR, sequence (P47871 26-477): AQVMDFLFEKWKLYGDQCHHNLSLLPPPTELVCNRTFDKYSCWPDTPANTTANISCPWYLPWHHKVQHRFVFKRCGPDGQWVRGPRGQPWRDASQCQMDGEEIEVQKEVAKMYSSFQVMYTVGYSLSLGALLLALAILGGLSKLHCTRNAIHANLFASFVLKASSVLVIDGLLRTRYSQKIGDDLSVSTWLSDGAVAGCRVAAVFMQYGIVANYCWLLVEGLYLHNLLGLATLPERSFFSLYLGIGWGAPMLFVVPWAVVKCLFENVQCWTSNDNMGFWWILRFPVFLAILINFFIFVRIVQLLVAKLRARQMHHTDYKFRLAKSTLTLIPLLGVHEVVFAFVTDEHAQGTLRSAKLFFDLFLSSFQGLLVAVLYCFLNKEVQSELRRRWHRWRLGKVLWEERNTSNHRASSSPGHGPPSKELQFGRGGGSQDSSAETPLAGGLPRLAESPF

SMILES	Emax [1] [%]	Emax [2] [%]	% Change from starting body weight ([3]; Table 10, 10 nmol/kg) [%]	% Change from starting fat mass ([3]; Table 10, 10 nmol/kg) [%]	% Change from starting body weight ([3]; Table 10, 30 nmol/kg) [%]	% Change from starting fat mass ([3]; Table 10, 30 nmol/kg) [%]	% Change from starting body weight ([3]; Table 10, 100 nmol/kg) [%]	% Change from starting fat mass ([3]; Table 10, 100 nmol/kg) [%]	Plasma Cholesterol ([3]; Table 13, 10 nmol/kg) [mg/dL]	Blood Glucose ([3]; Table 13, 10 nmol/kg) [mg/dL]	Plasma Cholesterol ([3]; Table 13, 30 nmol/kg) [mg/dL]	Blood Glucose ([3]; Table 13, 30 nmol/kg) [mg/dL]	Plasma Cholesterol ([3]; Table 13, 100 nmol/kg) [mg/dL]	Blood Glucose ([3]; Table 13, 100 nmol/kg) [mg/dL]	CL/F [4] [mL/h/kg]	Cmax [4] [ng/mL]	AUC(0-inf) [4] [µg·h/mL]	half-life [4] [h]	Tmax [4] [h]	Molar ratio of hGLP-1R/hGIP-R [5]	also measured
CC[C@H](C)[C@H](NC(=O)[C@H](CC(C)C)NC(=O)[C@H](Cc1c[nH]c2ccccc12)NC(=O)[C@H](CCC(N)=O)NC(=O)[C@@H](NC(=O)[C@H](Cc1cccc2ccccc12)NC(=O)[C@H](C)NC(=O)[C@H](CCCCNC(=O)COCCOCCNC(=O)COCCOCCNC(=O)CC[C@H](NC(=O)CCCCCCCCCCCCCCCCC(=O)O)C(=O)O)NC(=O)[C@H](CCC(N)=O)NC(=O)[C@H](C)NC(=O)[C@@H](NC(=O)[C@H](CCCCN)NC(=O)[C@H](CC(=O)O)NC(=O)[C@H](CC(C)C)NC(=O)C(C)(C)NC(=O)[C@@H](NC(=O)[C@H](CO)NC(=O)[C@H](Cc1ccc(O)cc1)NC(=O)[C@H](CC(=O)O)NC(=O)[C@H](CO)NC(=O)[C@@H](NC(=O)[C@H](Cc1ccccc1)NC(=O)[C@@H](NC(=O)CNC(=O)[C@H](CCC(=O)O)NC(=O)C(C)(C)NC(=O)[C@@H](N)Cc1ccc(O)cc1)[C@@H](C)O)[C@@H](C)O)[C@@H](C)CC)[C@@H](C)CC)C(C)C)C(=O)N[C@@H](C)C(=O)NCC(=O)NCC(=O)N1CCC[C@H]1C(=O)N[C@@H](CO)C(=O)N[C@@H](CO)C(=O)NCC(=O)N[C@@H](C)C(=O)N1CCC[C@H]1C(=O)N1CCC[C@H]1C(=O)N1CCC[C@H]1C(=O)N[C@@H](CO)C(N)=O [Example 6] (H-Y[Aib]EGTFTSDYSI[Aib]LDKIAQK([AEEA-AEEA-γGlu-C18 diacid])A[1Nal]VQWLIAGGPSSGAPPPS-NH2)	104 ± 4	106 ± 3	−17.54 ± 1.17	−34.30 ± 1.20	−19.52 ± 1.18	−39.52 ± 3.18	−29.36 ± 2.62	−56.66 ± 4.96	167.8 ± 15.59	121.4 ± 2.74	159.8 ± 9.99	121.9 ± 6.65	144.2 ± 7.12	116.1 ± 4.67	2.8	2200	72.3	23	4	1.83	% Change from starting body weight ([3]; Table 8, 10 nmol/kg): −15.31 ± 1.25 %; % Change from starting fat mass ([3]; Table 8, 10 nmol/kg): −24.75 ± 1.89 %; % Change from starting body weight ([3]; Table 8, 30 nmol/kg): −21.62 ± 0.92 %; % Change from starting fat mass ([3]; Table 8, 30 nmol/kg): −36.30 ± 2.47 %; % Change from starting body weight ([3]; Table 8, 100 nmol/kg): −33.95 ± 1.93 %; % Change from starting fat mass ([3]; Table 8, 100 nmol/kg): −64.64 ± 4.04 %; Plasma Cholesterol ([3]; Table 11, 10 nmol/kg): 198.4 ± 6.76 mg/dL; Plasma Triglycerides ([3]; Table 11, 10 nmol/kg): 20.78 ± 4.40 mg/dL; Blood Glucose ([3]; Table 11, 10 nmol/kg): 105.8 ± 2.10 mg/dL; Plasma Cholesterol ([3]; Table 11, 30 nmol/kg): 186.4 ± 17.04 mg/dL; Plasma Triglycerides ([3]; Table 11, 30 nmol/kg): 26.12 ± 6.85 mg/dL; Blood Glucose ([3]; Table 11, 30 nmol/kg): 100.1 ± 3.29 mg/dL; Plasma Cholesterol ([3]; Table 11, 100 nmol/kg): 151.4 ± 14.32 mg/dL; Plasma Triglycerides ([3]; Table 11, 100 nmol/kg): 17.26 ± 1.67 mg/dL; Blood Glucose ([3]; Table 11, 100 nmol/kg): 103.6 ± 3.20 mg/dL; Absolute ratio of hGLP-1R/hGIP-R [5]: 8.3; % max increase of insulin AUC [6]: 289 +/− 4%; ED50 for insulin, rat IVGTT [6]: 2.58 nmol/kg; EC50 [7]: 51.4 nM; EC50 [8]: > 1000 nM
CC[C@H](C)[C@H](NC(=O)[C@H](CC(C)C)NC(=O)[C@H](Cc1c[nH]c2ccccc12)NC(=O)[C@H](CCC(N)=O)NC(=O)[C@@H](NC(=O)[C@H](Cc1cccc2ccccc12)NC(=O)[C@H](C)NC(=O)[C@H](CCCCNC(=O)COCCOCCNC(=O)COCCOCCNC(=O)CC[C@H](NC(=O)CC[C@H](NC(=O)CCCCCCCCCCCCCCCCC(=O)O)C(=O)O)C(=O)O)NC(=O)[C@H](CCC(N)=O)NC(=O)[C@H](C)NC(=O)[C@@H](NC(=O)[C@H](CCCCN)NC(=O)[C@H](CC(=O)O)NC(=O)[C@H](CC(C)C)NC(=O)C(C)(C)NC(=O)[C@@H](NC(=O)[C@H](CO)NC(=O)[C@H](Cc1ccc(O)cc1)NC(=O)[C@H](CC(=O)O)NC(=O)[C@H](CO)NC(=O)[C@@H](NC(=O)[C@H](Cc1ccccc1)NC(=O)[C@@H](NC(=O)CNC(=O)[C@H](CCC(=O)O)NC(=O)C(C)(C)NC(=O)[C@@H](N)Cc1ccc(O)cc1)[C@@H](C)O)[C@@H](C)O)[C@@H](C)CC)[C@@H](C)CC)C(C)C)C(=O)N[C@@H](C)C(=O)NCC(=O)NCC(=O)N1CCC[C@H]1C(=O)N[C@@H](CO)C(=O)N[C@@H](CO)C(=O)NCC(=O)N[C@@H](C)C(=O)N1CCC[C@H]1C(=O)N1CCC[C@H]1C(=O)N1CCC[C@H]1C(=O)N[C@@H](CO)C(N)=O [Example 7] (H-Y[Aib]EGTFTSDYSI[Aib]LDKIAQK([AEEA-AEEA-γGlu-γGlu-C18 diacid])A[1Nal]VQWLIAGGPSSGAPPPS-NH2)	97.2 ± 3.4	106 ± 3	−15.08 ± 1.22	−26.46 ± 2.31	−20.70 ± 1.95	−43.49 ± 5.47	−24.36 ± 2.06	−49.92 ± 3.40	161.8 ± 6.2	113.6 ± 4.16	153.6 ± 13.47	114.7 ± 4.70	145.4 ± 9.48	114 ± 2.36	1.5	2900	136	31	6	1.68	Absolute ratio of hGLP-1R/hGIP-R [5]: 7.6; % max increase of insulin AUC [6]: 278 +/− 26% and 335 +/− 35%; EC50 [7]: 11.3 nM; EC50 [8]: > 1000 nM
